Structures are written as SMILES. A value given as a limit tells only on which side of the number the result lay.

Assay [1] addresses T1, WRN enzyme (Homo sapiens, UniProt Q14191).
T1 construct: host or cells: eukaryotic cells (not further specified)
Nature of the assay: WRN helicase activity assay (unwinding of BHQ2/Cy5-labelled double-stranded DNA, fluorescence). The following applies: Table 3, 30 min pre-incubation, 30 min reaction. It counts as biochemical. From the text:
The WRN enzyme used in the experiment has a His-TEV tag at the N-terminus and is expressed in eukaryotic cells with a purity of 90%. The two single-stranded DNAs used for assay are labeled with BHQ2 and Cy5, respectively. When two fluorophores are in close proximity (when the DNA is in a double-stranded state), no fluorescence signal is detected due to the quenching effect. WRN has helicase activity, which enables the unwinding of double-stranded DNA to form single strands, thereby generating a fluorescence signal.
Two labeled single-stranded DNA strands were annealed to form double-stranded DNA. Annealing buffer: 12 mM Tris (pH 8.0), 300 mM NaCl, 12 mM MgCl2, 2 mM DTT. Annealing program: 95°C, 5 min.
2× WRN enzyme (2 nM) and 2× substrate (100 nM double-stranded DNA, 1000 nM capture DNA, 100 µM ATP) were prepared using buffer (20 mM Bicine, 10 mM KCl, 1 mM MgCl2, 0.005% BSG, 1 mM TCEP, 0.1% F-127, pH 7.5). The test compound was dissolved in DMSO to 10 mM and was gradient-diluted using a 96-well V-bottom plate. 0.5 µL of compound was added to 25 µL of 2× WRN enzyme and incubated at room temperature for 30 min. 25 µL of 2× substrate was added, and the reaction was carried out at room temperature for 30 min. Detection was performed using a microplate reader with an excitation wavelength of 620 nm and an emission wavelength of 685 nm.
The concentration-effect curve was fitted using GraphPad Prism 8 software, and the compound concentration for 50% inhibition (IC50) was calculated. The percentage inhibition for each compound concentration was first calculated, and then the concentration-effect curve was fitted using the "log(inhibitor) vs. normalized response -- Variable slope" equation in GraphPad Prism 8 software to obtain the IC50. [formula] • Positive control: 25 µL 2× WRN enzyme + 0.5 µL DMSO + 25 µL 2× substrate • Negative control: 25 µL 2× buffer + 0.5 µL DMSO + 25 µL 2× substrate

Assay [2] deals with T1, WRN enzyme. Nature of the assay: biochemical. Here is the method:
The WRN enzyme used in the experiment has a His-TEV tag at the N-terminus and is expressed in eukaryotic cells with a purity of 90%. The assay kit (ADP-Glo™ Kinase Assay) was purchased from Promega (Cat. No. V9101), aliquoted, and then stored in the refrigerator at -40°C. This kit could quantitatively detect the amount of ADP generated in the reaction. WRN hydrolyzed ATP to produce ADP. The ADP-Glo reagent was added to deplete excess ATP in the reaction system, followed by the addition of Kinase Detection Reagent to convert the ADP produced by the reaction into ATP and produce chemiluminescence. The enzyme activity of WRN can be reflected by detecting the chemiluminescence signal using a microplate reader.
Single-stranded DNA was annealed to form double-stranded DNA. 5× Annealing Buffer: 50 mM Tris pH 8.0, 100 mM NaCl. Annealing program: 95°C, 5 min.
2× WRN enzyme (1 nM) and 2× substrate (1 nM double-stranded DNA, 100 µM ATP) were prepared using a buffer (20 mM Bicine (pH 7.5), 10 mM KCl, 10 mM MgCl2, 0.005% BSG, 0.002% Tween 20, 1 mM TCEP). The test compound was dissolved in DMSO to 10 mM and was gradient-diluted using a 96-well V-bottom plate. First, 25 µL of 2× WRN enzyme and 0.5 µL of compound were added to a 96-well plate and incubated at room temperature for 30 min. Then, 25 µL of 2× substrate was added, and the reaction was carried out at room temperature for 60 min. 5 µL was taken from the reaction plate and transferred to a 384-well plate for detection. 5 µL of ADP-Glo reagent was added and incubated at room temperature for 60 min, followed by the addition of 10 µL of Kinase Detection Reagent and incubation at room temperature for 40 min. The chemiluminescence signal was detected using a microplate reader.

The test system of another assay is SW48. As to the kind of experiment: γH2AX induction assay (HTRF Phospho-H2AX), SW48. It counts as cell-based. To be noted: Homo sapiens, SW-48, incubated for 2-3 days, read-out: γ-H2AX induction SW-48 (EC50 nM). As for the experimental part:
(§1) SW48, HCT116, and SW620 cells were plated into 96-well cell culture plates at a density of 15,000-25,000 cells/well and cultured overnight in a 37°C incubator. The test compounds, which were gradient-diluted with DMSO, were added and incubated for 2-3 days. The γ-H2AX level was detected using HTRF Phospho-H2AX (SER139) Detection Kits. The 4× Lysis buffer and Detection buffer were equilibrated to room temperature for later use. The 4× Lysis buffer was diluted to 1× Lysis buffer using ddH2O. After the medium was aspirated, 50 µL of 1× Lysis buffer was added to each well and shaken at room temperature for 30 minutes for lysis. 16 µL of lysate was transferred to a 384-well plate, followed by the addition of 4 µL of diluted antibody mixture (Phospho-H2AX d2 antibody and Phospho-H2AX Eu Cryptate antibody were each diluted 20-fold using Detection buffer, and the two antibodies were then mixed uniformly at a 1:1 volume ratio). The mixture was incubated at room temperature for 2-24 h, and fluorescence signals at […] and 615 nm were detected using a microplate reader. Parallel treatment plates were simultaneously set up in the experiment, and cell viability was detected using the CellTiter-Glo kit. The CellTiter-Glo reagent was equilibrated to room temperature, and an appropriate amount was added to the cell plate, followed by shaking at room temperature for 12 min. The luminescence signal was detected using a microplate reader.
(§2) The fluorescence signal values of DMSO-treated wells and positive drug-treated wells were used as negative and positive controls, respectively, to calculate the level of γ-H2AX induced by the compounds. The concentration-induction rate curve was fitted using the "log(agonist) vs. response -- Variable slope (four parameters)" equation in GraphPad Prism 8 software to obtain the EC50. [formula] [formula]
(In general: In TR-FRET formats the signal depends on donor and acceptor labels being close together.)

In a further assay the test system is SW620 cells. As to the kind of experiment: γH2AX induction assay (HTRF Phospho-H2AX), SW620. To be noted: Homo sapiens, SW-620 (MSS), incubated for 2-3 days, read-out: γ-H2AX induction SW-620 (EC50 nM). It counts as cell-based. Here is the method: as §1, §2

T1 sequence (Q14191 whole entry): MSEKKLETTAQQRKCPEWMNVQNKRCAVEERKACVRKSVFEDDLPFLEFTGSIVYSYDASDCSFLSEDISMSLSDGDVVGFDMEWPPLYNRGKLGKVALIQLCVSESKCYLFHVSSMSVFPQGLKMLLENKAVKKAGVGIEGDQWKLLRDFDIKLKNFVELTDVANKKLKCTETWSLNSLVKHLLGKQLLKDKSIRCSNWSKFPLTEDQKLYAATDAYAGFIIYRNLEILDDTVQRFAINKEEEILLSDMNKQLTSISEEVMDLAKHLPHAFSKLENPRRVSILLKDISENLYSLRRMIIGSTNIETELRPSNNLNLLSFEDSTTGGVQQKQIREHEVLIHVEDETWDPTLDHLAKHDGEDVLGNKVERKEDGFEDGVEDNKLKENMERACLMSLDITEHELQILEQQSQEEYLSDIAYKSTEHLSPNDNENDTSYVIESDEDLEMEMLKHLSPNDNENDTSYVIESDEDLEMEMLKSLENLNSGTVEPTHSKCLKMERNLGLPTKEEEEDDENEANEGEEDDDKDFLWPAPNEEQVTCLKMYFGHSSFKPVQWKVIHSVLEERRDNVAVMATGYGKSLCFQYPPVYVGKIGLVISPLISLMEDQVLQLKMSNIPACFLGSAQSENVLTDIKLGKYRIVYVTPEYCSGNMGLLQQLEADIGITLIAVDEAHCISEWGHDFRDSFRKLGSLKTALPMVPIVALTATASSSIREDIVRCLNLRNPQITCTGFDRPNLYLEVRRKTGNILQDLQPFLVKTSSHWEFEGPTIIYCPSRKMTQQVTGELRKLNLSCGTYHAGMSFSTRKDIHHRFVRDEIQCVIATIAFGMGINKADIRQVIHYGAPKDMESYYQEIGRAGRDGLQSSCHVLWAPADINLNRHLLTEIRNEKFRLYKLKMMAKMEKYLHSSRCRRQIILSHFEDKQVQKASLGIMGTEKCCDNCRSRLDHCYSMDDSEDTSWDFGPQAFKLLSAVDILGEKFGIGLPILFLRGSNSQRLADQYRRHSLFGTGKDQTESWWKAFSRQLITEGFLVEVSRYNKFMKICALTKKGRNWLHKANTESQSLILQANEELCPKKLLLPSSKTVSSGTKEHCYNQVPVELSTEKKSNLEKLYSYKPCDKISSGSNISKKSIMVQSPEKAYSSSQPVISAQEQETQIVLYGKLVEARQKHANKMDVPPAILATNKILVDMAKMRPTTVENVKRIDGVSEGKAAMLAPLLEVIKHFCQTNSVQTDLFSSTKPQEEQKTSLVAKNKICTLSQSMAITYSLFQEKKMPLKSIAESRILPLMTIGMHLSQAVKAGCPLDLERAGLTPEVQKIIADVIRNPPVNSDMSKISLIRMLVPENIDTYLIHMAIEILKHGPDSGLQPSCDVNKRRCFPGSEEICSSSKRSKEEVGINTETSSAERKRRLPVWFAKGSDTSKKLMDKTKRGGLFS

On to `CCc1c(N2CCN(C(=O)c3ncnc(C)c3O)CC2)c(=O)c2nn(C3=CCOCC3)nc2n1CC(=O)Nc1cc(F)c(Cl)cc1Cl` [Example 22], for which the IC50 (commonly the midpoint of a concentration-inhibition curve) was 72.1 nM at WRN enzyme [1] and 46.8 nM on WRN enzyme [2]. For the same compound, the results for the concentration giving a half-maximal response (EC50) in the assay on SW48 and with SW620 cells were 128 nM and greater than 10000 nM, respectively.

Turning to `CCc1c(N2CCN(C(=O)c3ncnc(C)c3O)CC2)c(=O)c2nn(C3=CCOCC3)nc2n1CC(=O)Nc1ccc(C(F)(F)F)cc1Cl` [Example 4], the figures for the IC50 against WRN enzyme [1] and at WRN enzyme [2] were 60.9 nM and 88.5 nM, respectively. Besides, the concentration for a half-maximal effect (EC50) (as a rule, the concentration giving half of the maximal effect) was 53.8 nM with SW48 and greater than 10000 nM with SW620 cells.

As for `CCc1c(N2CCN(C(=O)c3ncnc(C)c3O)CC2)c(=O)c2nn(C3=CCOCC3)nc2n1CC(=O)Nc1cc(F)c(C(F)(F)F)cc1Cl` [Example 15], the IC50 was 70.2 nM at WRN enzyme [1] and 34.3 nM at WRN enzyme [2]. The figures for the 50% effective concentration (EC50) in the assay with SW48 and in the assay with SW620 cells were 62.9 nM and greater than 10000 nM, respectively.

The values are drawn from EP4692088A1, “COMPOUND ACTING AS WRN HELICASE INHIBITOR” (SHANGHAI JEYOU PHARMACEUTICAL CO., LTD., priority 2023, dated 2024).
